Values quoted from earlier work, collected in US20090215676A1, “Method of treatment” (priority 2005, published 2009).
Like-named read-outs stand apart in the source and are kept apart here.

How the values were obtained:
GH and IGF-1 levels = details: for acromegalic patients in whom GH and IGF-1 levels are reduced: human, in vivo; for share of responding patients whose GH and IGF-1 levels are reduced to normal levels (full responders): of the approximately 90% who respond
IGF-I levels = details: for daily pegvisomant dose needed: former pegvisomant registration studies
IGF-I [1] = details: once weekly pegvisomant dose of 80 mg, monotherapy
IGF-I [2] = details: alternate day administration, monotherapy; of 10 patients
insulin sensitivity = details: in vivo

Compound | acromegalic patients in whom GH and IGF-1 levels are reduced (GH and IGF-1 levels) | share of responding patients whose GH and IGF-1 levels are reduced to normal levels (full responders) (GH and IGF-1 levels) | daily pegvisomant dose needed (IGF-I levels; one subject) [mg] | daily dose needed by the average patient (IGF-I levels; pegvisomant monotherapy) | acromegalics with IGF-I levels normalized (IGF-I levels; pegvisomant monotherapy, listed as PEGVISOMANT) | acromegalics with IGF-I levels normalized (IGF-I levels; pegvisomant monotherapy, listed as Pegvisomant) [%] | daily pegvisomant dose needed (IGF-I levels; two subjects) [mg] | share of patients with IGF-I normalized (IGF-I [1]) | patients in whom the regimen failed to maintain IGF-I within the age-adjusted normal range (IGF-I [2]) [patients] | effect on insulin sensitivity (insulin sensitivity) | effect on tumor growth (tumor size; clinical experience) | effect on mean tumor size (tumor size; follow-up with pegvisomant monotherapy to date)
CC(C)[C@@H]1NC(=O)[C@H](CCCCN)NC(=O)[C@@H](Cc2c[nH]c3ccccc23)NC(=O)[C@H](Cc2ccc(O)cc2)NC(=O)[C@@H](NC(=O)[C@H](N)Cc2ccc3ccccc3c2)CSSC[C@@H](C(=O)N[C@H](C(N)=O)[C@@H](C)O)NC1=O [LANREOTIDE] | approximately 90% | one-half to two-thirds | – | – | – | – | – | – | – | – | – | –
C[C@@H](O)[C@@H]1NC(=O)[C@H](CCCCN)NC(=O)[C@@H](Cc2c[nH]c3ccccc23)NC(=O)[C@H](Cc2ccccc2)NC(=O)[C@@H](NC(=O)[C@H](N)Cc2ccccc2)CSSC[C@@H](C(=O)N[C@H](CO)[C@@H](C)O)NC1=O [OCTREOTIDE] | approximately 90% | one-half to two-thirds | – | – | – | – | – | – | – | – | – | –
pegvisomant | – | – | 35 | approximately 20 mg | 75%-95% | > 90 | 40 | less than one-third | 7 | improves insulin sensitivity as compared to somatostatin analogues | does not prevent tumor growth in some patients | do not indicate that pegvisomant increases mean tumor size
